From US12673918B2, “Small molecule RPN13 inhibitors with antitumor properties” (The Johns Hopkins University, priority 2019, dated 2026) come the findings set out here.

One may read the IC50 as the concentration needed to halve the response being measured.

The nature of one data set: in vivo. In kind it is in vivo, C57BL/6 mice. As to conditions: female, C57BL/6, mouse, in vivo; suggested from toxicities at higher dose; read-out: MTD in tumor-bearing animals. The method, then: To assess therapeutic efficacy the ID8-VegfDefb29 cell line was utilized in a syngeneic mouse model of ovarian cancer expressing luciferase (62). ID8 was first derived from spontaneous malignant transformation of C57BL/6 mouse ovarian surface epithelial cells in vitro (69). ID8-Vegf Defb29 cells represent a more aggressive variant of ovarian cancer in which VEGF provides vascular growth which is augmented by the presence of DEFB29 (62). C57BL/6 mice were injected i.p. with ID8-VegfDefb29 cells stably expressing firefly luciferase (0.5×10^6 cells) in PBS (100 μL). After 72 hrs, mice were imaged for their basal luminescence levels using an IVIS200 imager. Mice with visible luminescence were randomized into equal groups including vehicle (n=8), RA414 (3 mg/Kg, n=8), RA414 (10 mg/Kg, n=8) and treated every three days for up to 3 weeks. Mice were imaged every week to measure bioluminescence expressed by tumor after administration of luciferin. […] On day 24 two mice were sacrificed after collection of ascites, and the remainder required euthanasia on day 31 (FIGS. 17A and 17B). Administration of RA414 at 10 mg/kg (3 doses delivered every three days) regressed the tumor completely in 50% of the mice with less than 10% weight loss. […] This is consistent with proteasome inhibition within the ascites cells by the […] RA414 treatment regimen.
(§1) Tumor Studies: Female C57BL6 or Nude mice were inoculated with 10^6 ES2-Luciferase cells i.p. in 100 uL PBC, or ID8-VegfDefb29 syngeneic mouse model of ovarian cancer expressing luciferase (62) i.p. in 100 μL PBS. At day 3, mice were imaged for basal level luminescence activity with a Xenogen IVIS 200 after injection i.p. with luciferin (0.3 mg in 100 water). Mice were randomized into two groups (n=8) and treated i.p. with compounds or vehicle (25% (w/v) β-Hydroxypropylcyclodextrin in water), and imaged again on days 7 and 14. RA375 was administered i.p. at 10 mg/Kg.

The conditions of data set [1]: PEG400: Cremophor: Tween40 vs b-HPCD.
The subject of another data set is DU145. Briefly: MTT cytotoxicity assay, DU145. Conditions: Homo sapiens, DU-145, read-out: cytotoxicity IC50 DU145. A general note: Tetrazolium dyes change colour on reduction, which living cells bring about.
In the next data set the test system is JHU29. Briefly: MTT cytotoxicity assay, JHU29. In kind it is cell-based. Conditions: Table 3, 48 hr, Head & Neck (HPV −ve).
The next data set concerns C33A. Briefly: MTT cytotoxicity assay, C33A. In kind it is cell-based. Conditions: Homo sapiens, C-33-A, Table 3, 48 hr, Cervical (HPV −ve).
For the next data set, the system named is HT3. Briefly: MTT cytotoxicity assay, HT3. The format is cell-based. As to conditions: Homo sapiens, HT-3, Table 3, 48 hr, Cervical (HPV −ve).
The test system of a further data set is JHU11. The experiment in a line: MTT cytotoxicity assay, JHU11. The format is cell-based. Conditions: Table 3, 48 hr, Head & Neck (HPV −ve).
Another data set deals with SSC25. Briefly: MTT cytotoxicity assay, SSC25. The format is cell-based. As to conditions: Table 3, 48 hr, Head & Neck (HPV −ve).
Data set [2] can be described thus: Initial toxicity testing in female Balb/c mice. In kind it is in vivo. The method, then: Initial toxicity testing was performed in female Balb/c mice with RA375. Groups of mice (n=3) were injected intra peritoneally (i.p.) with a single dose of RA375 (5, 10, 20, 40, 60, 100 mg/Kg in 25% β-hydroxypropyl cyclodextrin) and endpoints evaluated included clinical observation and body weight for one week.

The test system of another data set is VU147T. The experiment in a line: MTT cytotoxicity assay, VU147T. The format is cell-based. Conditions: Table 3, 48 hr, Head & Neck (HPV +ve).
A further data set relates to ES2-luc xenograft. The experiment in a line: ES2-luc intraperitoneal xenograft in nude mice. The format is in vivo. As to conditions: 10 mg/Kg every 3 days, total 12 doses. The method, then:
ES2 is a human cell line derived from a high grade ovarian clear cell carcinoma (42). The efficacy of RA375 against the ES2 xenograft model expressing luciferase (ES2-luc) was tested. Nude female mice were inoculated with ES2-luc cells into the peritoneal cavity. After 3 days the mice were imaged for their basal luminescence activity and randomized into two groups (n=8). […] Mice were imaged after the first and second week of treatment for their luciferase activity to assess tumor burden.
Briefly, female nude mice were injected interperitoneally (i.p.) with ES2-luc cells (1×10^6) in 100 μL PBS and the basal luminescence was measured after three days using IVIS 200 imaging after injecting luciferin. […] Over the treatment period mice were imaged every week for bioluminescence to monitor tumor growth.
as §1

The next data set deals with MCF7. As to conditions: human.
Another data set concerns ES2 cells. Briefly: Seahorse mitochondrial stress test, ES2 cells. In kind it is cell-based, human.
For another data set, the system named is OVCAR3. As to conditions: human.
Another data set concerns NF-κB. The experiment in a line: NF-κB dependent luciferase reporter in 293T cells. Conditions: 293T NF-κB luciferase, drug treatment 7 hr. The format is cell-based. From the text: FIG. 21C illustrates 293T cells stably expressing NF-κB dependent luciferase gene that show a dose dependent reduction in bioluminescence with drug treatment (7 hr) measured by luminometer.
Activation of NF-κB is regulated by IκB proteins. IκB-α ubiquitination and degradation is an important step for the nuclear localization of NF-kB and activation of its transcriptional program.
For orientation: In a reporter assay the amount or activity of a reporter protein is the signal.

A further data set relates to intracellular GSH. The experiment in a line: Total GSH assay, SKOV3 cells. The format is cell-based, human. As to conditions: SKOV3, 0.5 μM, 12 hr. The method, then: Luciferase and GSH assays: Sub-confluent cultures of cells were transfected with 4Ub-FL or FL plasmid using Lipofectamine 2000 reagent (Life Technologies). Cells were seeded at 10,000 cells/well in 96-wells plate 48 hr post transfection and incubated with compounds or vehicle (DMSO) at the doses and times indicated. Luciferase activity in cell lysate was determined with a luciferase assay kit (Promega) according to the manufacturer's instructions. Bioluminescence was measured by using a Glomax Multidetection system (Promega). Glutathione was assayed using the Promega GSH assay kit (V6611).

In a further data set the test system is SKOV3 cells. Briefly: XTT cytotoxicity assay, SKOV3. The format is cell-based, human. Conditions: Homo sapiens, SK-OV-3; Table 1; XTT assay; read-out: IC50 SKOV3. The text has this: The impact of substituents of the aromatic ring on the potency of molecules was also examined. The presence of either an electron withdrawing group (EWG) or an electron donating group (EDG) influences the reactivity of a Michael acceptor towards the target protein but can also impact specificity/selectivity.

SMILES strings stand for the structures.

Method for C33A: (§2) The cytotoxic efficacy of selected compounds was assessed against multiple myeloma (MM) cell lines, as this is a validated clinical target for the licensed proteasome inhibitors.
(§3) Cell lines and cytotoxicity assays: All cell lines were obtained from the American Type Culture Collection (ATCC) and cultured in the specified medium supplemented with 10% fetal bovine serum, 100 IU/mL penicillin, and 100 μg/mL streptomycin at 37° C. in a humidified 5% CO2/95% air incubator. […] To assess drug cytotoxicity, cells were seeded at 2,500 cells/well (10,000 cells/well for MM lines) in 100 μL medium in 96-well plate and after 24 treated with compounds for 72 h, incubated according to the manufacturer's protocol with the Thiazolyl Blue Tetrazolium Bromide (Sigma, M2128) and A570 measured using a Benchmark Plus microplate spectrophotometer (BIO-RAD). IC50 data was analyzed by Graphpad Prism software. In the chirality studies the cells were treated with compounds for 48 h, and the cells were incubated and measured via the preceeding protocols.
Method for DU145: as §3
Method for ES2 cells: During the mitochondrial stress test, baseline OCR measurements were followed by the addition of the compound oligomycin to measure ATP-linked respiration. Upon addition of the uncoupler FCCP, maximal respiration is measured. […] At the end of the assay, a mix of rotenone and antimycin A was injected to provide a measure of non-mitochondrial respiration. […] To determine the impact of RA413S on glycolysis, ES2 cells were incubated in medium without glucose or pyruvate and the baseline ECAR was measured. Addition of glucose allows the measurement of the glycolysis rate. This was followed by the injection of oligomycin which inhibits mitochondrial ATP production and shifts the energy production to glycolysis. The consequent rise in ECAR measures the cellular maximum glycolytic capacity.
Seahorse Assay: For quantification of oxygen consumption rate, ES2 cells were seeded at 20,000 cells per well in Seahorse XF96 Analyzer plates in regular media and incubated at 37° C. with 5% CO2 overnight. […] The plate was then loaded into the Seahorse machine and readings of oxygen and pH levels were taken before and after injections of 3 μM oligomycin, 4 μM FCCP, 2 μM antimycin, and 2 μM rotenone. Oxygen consumption rate and extracellular acidification rate were analyzed using Wave 2.4 software.
Method for HT3: as §2, §3
Method for JHU11: as §2, §3
Method for JHU29: as §2, §3
Method for SSC25: (§4) Cell lines and cytotoxicity assays: All cell lines were obtained from the American Type Culture Collection (ATCC) and cultured in the specified medium supplemented with 10% fetal bovine serum, 100 IU/mL penicillin, and 100 μg/mL streptomycin at 37° C. in a humidified 5% CO2/95% air incubator. […] To assess drug cytotoxicity, cells were seeded at 2,500 cells/well (10,000 cells/well for MM lines) in 100 μL medium in 96-well plate and after 24 treated with compounds for 72 h, incubated according to the manufacturer's protocol with the Thiazolyl Blue Tetrazolium Bromide (Sigma, M2128) and A570 measured using a Benchmark Plus microplate spectrophotometer (BIO-RAD). IC50 data was analyzed by Graphpad Prism software.
Method for VU147T: as §4

As for `CC1/C(=C\c2ccc([N+](=O)[O-])cc2)C(=O)/C(=C/c2ccc([N+](=O)[O-])cc2)CN1C(=O)[C@H](Cc1ccccc1)NC(=O)CCl` (stereo partly shown) [RA414], the MTD in the data set “in vivo” was 3 mg/kg. The “solubility in formulation vehicles” value in data set [1] was “soluble in the PEG system only”. In addition, the IC50 in the data set with DU145 is 17 nM.
On to `O=C(CCl)N[C@@H](Cc1ccccc1)C(=O)N1C/C(=C\c2ccc([N+](=O)[O-])cc2)C(=O)/C(=C/c2ccc([N+](=O)[O-])cc2)C1` [RA375], for which the concentration for half-maximal inhibition (IC50) with JHU29 is 173 nM; in the data set with C33A, 167 nM; in the data set on HT3, 162 nM; in the data set on JHU11, 178 nM; in the data set on SSC25, 189 nM; in the data set with VU147T, 40 nM. Also, in [2] (40 mg/Kg on alternate days for two weeks), the “toxicity after repeated dosing” value was “no observable toxicities or weight loss”. Besides, the “adverse effects after single dose” value in [2] (female Balb/c, single i.p. dose 5-100 mg/Kg, one week observation) was “No adverse effects were noted”.
With `C[C@H]1/C(=C\c2ccc([N+](=O)[O-])cc2)C(=O)/C(=C/c2ccc([N+](=O)[O-])cc2)CN1C(=O)[C@@H](N)Cc1ccccc1`, the survival result in the data set with ES2-luc xenograft is reported as “significantly increased survival”. Further, in the data set with ES2-luc xenograft, the “tumor burden (bioluminescence)” value was “significantly reduced tumor burden”. The IC50 in the data set on MCF7 was 250 nM; in the data set on OVCAR3, 69 nM; with VU93, 100 nM. Also, in the data set on ES2 cells (ES2, 12 hr, 100 nM), the “decrease of ATP production” value is listed as approximately 4 fold. In the data set on ES2 cells (ES2, relative to vehicle or RA414-treated groups), the maximal respiration entry is listed as “significantly reduced”. Moreover, the “decrease in NF-κB activity, relative potency” value in the data set with NF-κB was “more potent than for RA183”. The “fold more cytotoxic than RA413R” value with SKOV3 was 4 fold.
Regarding `CC(C)C[C@H](NC(=O)[C@H](Cc1ccccc1)NC(=O)c1cnccn1)B(O)O` [Bortezomib, bortezomib, reference compound], the “cellular total GSH levels” value with intracellular GSH is “profoundly reduced cellular GSH levels”.
As for `N[C@@H](Cc1ccccc1)C(=O)N1C/C(=C\c2ccc(Cl)c(Cl)c2)C(=O)/C(=C/c2ccc(Cl)c(Cl)c2)C1` [RA190, reference compound], the concentration for half-maximal inhibition (IC50) in the data set on SKOV3 cells came out at 75 nM.
